Data taken from patent publication US10745382B2 (BRISTOL-MYERS SQUIBB COMPANY, priority 2015, dated 2020).
Read-outs that look alike come from different tables or passages of the source.

Biological target: T1, PD-1/PD-L1 (Homo sapiens, UniProt Q9NZQ7)
T1 construct: made in house; host or cells: HEK293T
Test: PD-1/PD-L1 Homogenous Time-Resolved Fluorescence (HTRF) binding assay
Conditions: PD-L1-His 10 nM, PD-1-Ig 20 nM, read-out: Range or IC50
Summary of the method: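 Detection by europium cryptate anti-Ig plus APC anti-His (1 nM and 20 nM final) with HTRF signal. Buffer was dPBS, 0.1% BSA, 0.05% Tween-20.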

T1 sequence (Q9NZQ7 with tags, fused parts or gaps): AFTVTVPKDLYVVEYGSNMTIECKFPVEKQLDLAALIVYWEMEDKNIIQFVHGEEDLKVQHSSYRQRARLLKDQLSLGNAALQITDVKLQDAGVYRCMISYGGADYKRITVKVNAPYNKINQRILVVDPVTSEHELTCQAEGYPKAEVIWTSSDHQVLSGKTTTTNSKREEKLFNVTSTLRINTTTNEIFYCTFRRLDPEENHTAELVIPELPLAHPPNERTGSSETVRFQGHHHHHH

Row | Compound | IC50 (value given as range class) [nM] | IC50 (numeric IC50) [nM]
1 | COC(=O)C1(O)CCN(CCCOc2cccc(-c3cccc(COc4cc(OCc5cncc(C#N)c5)c(CN[C@](C)(CO)C(=O)O)cc4Cl)c3C)c2C)CC1 [Example 1030, (R)-2-((5-chloro-2-((5-cyanopyridin-3-yl)methoxy)-4-((3′-(3-(4-hydroxy-4-(methoxycarbonyl)piperidin-1-yl)propoxy)-2,2′-dimethyl-[1,1′-biphenyl]-3-yl)methoxy)benzyl)amino)-3-hydroxy-2-methylpropanoic Acid] | 0.21 to 10 | –
2 | Cc1c(COc2cc(OCc3cncc(S(C)(=O)=O)c3)c(CN3CCCC[C@H]3C(=O)O)cc2Cl)cccc1-c1cccc(OCCCN2CC(O)C(C(=O)O)C2)c1C (stereo partly drawn) [Example 1074, (2S)-1-(4-((3′-(3-(3-carboxy-4-hydroxypyrrolidin-1-yl)propoxy)-2,2′-dimethyl-[1,1′-biphenyl]-3-yl)methoxy)-5-chloro-2-((5-(methylsulfonyl)pyridin-3-yl)methoxy)benzyl)piperidine-2-carboxylic Acid] | 0.21 to 10 | –
3 | CCN(CC)C(=O)c1cccc(-c2cccc(COc3cc(OCc4cncc(C#N)c4)c(CN4CCOC[C@H]4C(=O)O)cc3Cl)c2C)c1C [Example 4046, (S)-4-(5-chloro-2-((5-cyanopyridin-3-yl)methoxy)-4-((3′-(diethylcarbamoyl)-2,2′-dimethyl-[1,1′-biphenyl]-3-yl)methoxy)benzyl)morpholine-3-carboxylic Acid] | 100 to 2000 | –
4 | Cc1c(OCCCN2CC[C@H](O)C2)cccc1-c1cccc(COc2cc(OCc3cncc(C#N)c3)c(CN3CCCC[C@H]3C(=O)O)cc2Cl)c1Cl [Example 2304, (S)-1-(5-chloro-4-((2-chloro-3′-(3-((S)-3-hydroxypyrrolidin-1-yl)propoxy)-2′-methyl-[1,1′-biphenyl]-3-yl)methoxy)-2-((5-cyanopyridin-3-yl)methoxy)benzyl)piperidine-2-carboxylic Acid] | 0.21 to 10 | –
5 | Cc1c(COc2cc(OCc3cncc(C#N)c3)c(CN[C@](C)(CO)C(=O)O)cc2Cl)cccc1-c1cccc(OCCCN2CCC(CO)(C(=O)O)C2)c1Cl (stereo partly drawn) [Example 1108, 1-(3-((3′-((4-((((R)-2-carboxy-1-hydroxypropan-2-yl)amino)methyl)-2-chloro-5-((5-cyanopyridin-3-yl)methoxy)phenoxy)methyl)-2-chloro-2′-methyl-[1,1′-biphenyl]-3-yl)oxy)propyl)-3-(hydroxymethyl)pyrrolidine-3-carboxylic Acid] | 0.21 to 10 | –
6 | Cc1c(COc2cc(OCc3cc(Cl)cc(Cl)c3)c(CN3CCCC[C@H]3C(=O)O)cc2Cl)cccc1-c1cccc(OCCCN2CC[C@@H](O)C2)c1C [Example 4503, (S)-1-(5-chloro-2-((3,5-dichlorobenzyl)oxy)-4-((3′-(3-((R)-3-hydroxypyrrolidin-1-yl)propoxy)-2,2′-dimethyl-[1,1′-biphenyl]-3-yl)methoxy)benzyl)piperidine-2-carboxylic Acid] | 0.21 to 10 | –
7 | Cc1c(COc2cc(OCc3cncc(C#N)c3)c(CN3CCCC[C@H]3C(=O)O)cc2Cl)cccc1-c1cccc(OCCCN2[C@@H]3CC[C@H]2COC3)c1C [Example 3051, (S)-1-(4-((3′-(3-((1R,5S)-3-oxa-8-azabicyclo[3.2.1]octan-8-yl)propoxy)-2,2′-dimethyl-[1,1′-biphenyl]-3-yl)methoxy)-5-chloro-2-((5-cyanopyridin-3-yl)methoxy)benzyl)piperidine-2-carboxylic Acid] | 0.21 to 10 | –
8 | CCOC(=O)C1(O)CCN(CCCOc2cccc(-c3cccc(COc4cc(OCc5cncc(C#N)c5)c(CN5CCCC[C@H]5C(=O)O)cc4Cl)c3C)c2Cl)CC1 [Example 1100, (S)-1-(5-chloro-4-((2′-chloro-3′-(3-(4-(ethoxycarbonyl)-4-hydroxypiperidin-1-yl)propoxy)-2-methyl-[1,1′-biphenyl]-3-yl)methoxy)-2-((5-cyanopyridin-3-yl)methoxy)benzyl)piperidine-2-carboxylic Acid] | 0.21 to 10 | –
9 | Cc1c(COc2cc(OCc3cncc(C#N)c3)c(CNC(C)(CO)CO)cc2Cl)cccc1-c1cccc(OCCCNC(C)(CO)CO)c1Cl [Example 2102, 5-((4-chloro-5-((2′-chloro-3′-(3-((1,3-dihydroxy-2-methylpropan-2-yl)amino)propoxy)-2-methyl-[1,1′-biphenyl]-3-yl)methoxy)-2-(((1,3-dihydroxy-2-methylpropan-2-yl)amino)methyl)phenoxy)methyl)nicotinonitrile] | 0.21 to 10 | –
10 | Cc1c(COCCN2CC[C@@H](O)C2)cccc1-c1cccc(COc2cc(OCc3cncc(C#N)c3)c(CN(C)C(CO)CO)cc2Cl)c1C [Example 4127, (R)-5-((4-chloro-2-(((1,3-dihydroxypropan-2-yl)(methyl)amino)methyl)-5-((3′-((2-(3-hydroxypyrrolidin-1-yl)ethoxy)methyl)-2,2′-dimethyl-[1,1′-biphenyl]-3-yl)methoxy)phenoxy)methyl)nicotinonitrile] | 0.21 to 10 | –
11 | CNC(=O)C1CCN(CCCOc2cccc(-c3cccc(COc4cc(OCc5cncc(C#N)c5)c(CN[C@](C)(CO)C(=O)O)cc4Cl)c3C)c2Cl)CC1 [Example 1076, (R)-2-((5-chloro-4-((2′-chloro-2-methyl-3′-(3-(4-(methylcarbamoyl)piperidin-1-yl)propoxy)-[1,1′-biphenyl]-3-yl)methoxy)-2-((5-cyanopyridin-3-yl)methoxy)benzyl)amino)-3-hydroxy-2-methylpropanoic Acid] | 0.21 to 10 | –
12 | Cc1c(COc2cc(OCc3cncc(C#N)c3)c(CN[C@H](CO)C(=O)O)cc2Cl)cccc1-c1cccc(OCCCN2CC[C@@](O)(c3ccc(Cl)cc3)[C@](C)(O)C2)c1Cl [Example 1089, (5-chloro-4-((2′-chloro-3′-(3-((3R,4R)-4-(4-chlorophenyl)-3,4-dihydroxy-3-methylpiperidin-1-yl)propoxy)-2-methyl-[1,1′-biphenyl]-3-yl)methoxy)-2-((5-cyanopyridin-3-yl)methoxy)benzyl)-D-serine] | 0.21 to 10 | –
13 | Cc1c(OCCCN2CC[C@@H](O)C2)cccc1-c1cccc(COc2cc(OCc3cncc(C#N)c3)c(CNC(CO)CO)cc2Cl)c1Cl [Example 2300, (R)-5-((4-chloro-5-((2-chloro-3′-(3-(3-hydroxypyrrolidin-1-yl)propoxy)-2′-methyl-[1,1′-biphenyl]-3-yl)methoxy)-2-(((1,3-dihydroxypropan-2-yl)amino)methyl)phenoxy)methyl)nicotinonitrile] | – | 1.7

Further lines, results first:

Row | IC50 (value given as range class) [nM] | IC50 (numeric IC50) [nM] | Compound
14 | 0.21 to 10 | – | Cc1c(COc2cc(OCc3cncc(C#N)c3)c(CN[C@@](C)(CO)C(=O)O)cc2Cl)cccc1-c1cccc(OCCCN2CCC(O)C2)c1C#N (stereo in doubt) [Example 3008, (S)-2-((5-chloro-4-((2′-cyano-3′-(3-((R)-3-hydroxypyrrolidin-1-yl)propoxy)-2-methyl-[1,1′-biphenyl]-3-yl)methoxy)-2-((5-cyanopyridin-3-yl)methoxy)benzyl)amino)-3-hydroxy-2-methylpropanoic Acid]
15 | 0.21 to 10 | – | Cc1c(COCCN2CC[C@@H](O)C2)cccc1-c1cccc(COc2cc(OCc3cncc(C#N)c3)c(CNC3(C(=O)O)CC3)cc2Cl)c1C [Example 4124, (R)-1-((5-chloro-2-((5-cyanopyridin-3-yl)methoxy)-4-((3′-((2-(3-hydroxypyrrolidin-1-yl)ethoxy)methyl)-2,2′-dimethyl-[1,1′-biphenyl]-3-yl)methoxy)benzyl)amino)cyclopropane-1-carboxylic Acid]
16 | 0.21 to 10 | – | Cc1ccccc1-c1cccc(COc2cc(OCc3cncc(C#N)c3)c(CN[C@@H](CO)C(=O)O)cc2Cl)c1C [Example 3021, (S)-2-((5-chloro-2-((5-cyanopyridin-3-yl)methoxy)-4-((2,2′-dimethyl-[1,1′-biphenyl]-3-yl)methoxy)benzyl)amino)-3-hydroxypropanoic Acid]
17 | – | 26 | Cc1c(COc2cc(OCc3cncc(C#N)c3)c(CN3CCCC[C@H]3C(=O)O)cc2Cl)cccc1-c1cccc(OCC(=O)N2CC[C@@H](O)C2)c1 [Example 1007, (S)-1-(5-chloro-2-((5-cyanopyridin-3-yl)methoxy)-4-((3′-(2-((R)-3-hydroxypyrrolidin-1-yl)-2-oxoethoxy)-2-methyl-[1,1′-biphenyl]-3-yl)methoxy)benzyl)piperidine-2-carboxylic Acid]
18 | 0.21 to 10 | – | Cc1c(OCCCNC[C@H](O)CO)cccc1-c1cccc(COc2cc(OCc3cncc(C#N)c3)c(CNC(CO)CO)cc2Cl)c1Cl [Example 2299, (S)-5-((4-chloro-5-((2-chloro-3′-(3-((2,3-dihydroxypropyl)amino)propoxy)-2′-methyl-[1,1′-biphenyl]-3-yl)methoxy)-2-(((1,3-dihydroxypropan-2-yl)amino)methyl)phenoxy)methyl)nicotinonitrile]
19 | 0.21 to 10 | – | Cc1c(COc2cc(OCc3cncc(S(C)(=O)=O)c3)c(CNC(C)(CO)C(=O)O)cc2Cl)cccc1-c1cccc(OCCCN2CCC(CO)(C(=O)O)C2)c1Cl (single isomer, unassigned) [Example 1064]
20 | 0.21 to 10 | – | Cc1c(COc2cc(OCc3cncc(C#N)c3)c(CN[C@H](CO)C(=O)O)cc2Cl)cccc1-c1cccc(OCCCN2CC(O)C2)c1C [Example 1080, (R)-2-((5-chloro-2-((5-cyanopyridin-3-yl)methoxy)-4-((3′-(3-(3-hydroxyazetidin-1-yl)propoxy)-2,2′-dimethyl-[1,1′-biphenyl]-3-yl)methoxy)benzyl)amino)-3-hydroxypropanoic Acid]
21 | 10 to 100 | – | Cc1c(COc2cc(OCc3cncc(C#N)c3)c(CN[C@@](C)(CO)C(=O)O)cc2Cl)cccc1-c1cccc(CN(C)CCN2CCS(=O)(=O)CC2)c1C [Example 4081, (S)-2-((5-chloro-2-((5-cyanopyridin-3-yl)methoxy)-4-((3′-(((2-(1,1-dioxidothiomorpholino)ethyl)(methyl)amino)methyl)-2,2′-dimethyl-[1,1′-biphenyl]-3-yl)methoxy)benzyl)amino)-3-hydroxy-2-methylpropanoic Acid]
